According to patent US20050169928A1, “Antibodies which bind to proteins involved in cytoadhesion of plasmodlum falciparum ring-stage-infected erythrocytes” (INSTITUT PASTEUR, priority 2000, published 2005):

Assays:
Type in all cases: cell-based, P. falciparum
[1] = test system: ring-stage PA^CSA IE cytoadhesion to SBEC 1D; test: Ring-stage IE cytoadhesion inhibition assay on SBEC 1D (Example 1); details: for inhibitory activity on ring-stage IE cytoadhesion to SBEC 1D (in words): ring-stage PA^CSA IE 8 hours post-invasion, glycosaminoglycans, enzymes on target cells, thrombospondin; for sensitivity of ring-stage IE^CSA cytoadhesion to inhibitor: 0.1 mg/ml CSA, or target cells pretreated with 1 U/ml chondroitinase ABC, until the 16th hour after invasion; for time after invasion of maximal inhibition of IE^CSA binding: highly synchronized PA^CSA IE tested every 4 hours throughout the cycle
Description: Gelatin-enriched preparations of mature-stage IE were resuspended at a concentration of 5×10^6 IE/ml in cytoadhesion medium at pH 6.8. Cytoadhesion microassays were then performed on 12-well IFA slides (Institut Pasteur, Paris) as previously described (Pouvelle, B. Fusai, T. Lepolard, C. & Gysin, J. biological and biochemical characteristics of cytoadhesion of Plasmodium falciparum-infected erythrocytes to chondroitin-4-sulfate. Infect. Immun. 66, 4950-4956 (1998)).
Ring-stage cytoadhesion assays were performed with endothelial cells as described above and with placental cryosections as previously described (Gysin, J., Pouvelle, B., Le Tonqueze, M., Edelman, L. & Boffa, M. C., Chondroitin sulfate of thrombomodulin is an adhesion receptor for Plasmodium falciparum-infected erythrocyics. Mol. Biochem. Parasitol. 88, 267-271 (1997)), with 1 to 10% parasitaemia (a 1×10^7 IE/ml suspension).
For cytoadhesion inhibition assays, the IE were incubated with SBEC in the presence of 2.5 μg/ml thrombospondin, 0.1 mg/ml soluble CSA, dermatan sulphate (CSB), chondroitin-6-sulphate (CSC), keratin sulphate (Ker), hyaluronic acid (HA), heparin (Hep) (Fluka, France), or with SBEC previously incubated for 1 hour at 37° C. with 1 U/ml chondrotinase ABC (Fluka, France), 1 to 10 U/ml heparinase III (Hepase III) (Sigma, France) or 5 μg/ml anti-CD36 FA6-152 Mab (gift from Dr. Edelman). Inhibition assays were also carried out in the presence of sera obtained from Senegalese and Cameroonian patients living in areas of endemic malaria. The sera were obtained from primigravida and multigravida women, an adult and a child, absorbed onto O^+ human blood and SBEC ID, and tested at a dilution of 1/20. The results were compared to those for cytoadhesion in the presence of a 1/20 dilution of a pool of control sera from volunteers who had never contacted malaria.
The protease sensitivity of ring-stage IE cytoadhesion was analyzed using 5 μl of packed PA^CSA IE (8 hours post-invasion). IE were incubated with 10 or 100 μg/ml of trypsin TPCK (Signa) or 100 μg/ml of α-chymotrypsin TLCK (Sigma) for 30 minutes at 37° C. The digestion was stopped by adding culture medium containing 10% human plasma. The cells were then washed in cytoadhesion medium and allowed to cytoadhere to SBEC 1D, as previously described, using untreated PA^CSA as a control.

[2] = test system: adherent rIE^CSA/nE and mature IE^CSA on SBEC 1D; test: Cytoadhesion inhibition and desequestration under flow conditions at 0.05 Pa; details: B4 200 μg/ml, CSA 10 μg/ml final
Description: In short: Four serial 7 μm normal human placenta cryosections (each of approximately 4 mm×4 mm) of the maternal compartment were mounted on a microscopic slide 75-25 mm and fixed with 0.5% para-formaldehyde in PBS at pH 7.2, for 2 hours at room temperature. After washing several times with PBS and then with RPMI 1640 pH 6.8, the slide is mounted on a perfusing chamber (Immunetics, France). An equipart mixture of 8±4 hours old synchronized rIE^CSA (including nE from the same culture) and 34±4 hours old IE^CSA at a final hematocrit of 25% in RPMI 1640, pH 7.2 were then flow through the chamber for 10 min at 0.05 Pascals. After rinsing for 10 min with the medium at the same shear stress, 100 ug/ml of a 50 kDa CSA (Fluka, France) dissolved in RPMI or 200 ug/ml of mAbs was flushed through the chamber for 10 min at the same shear stress. Slides from 3 experiments were recovered and stained by Giemsa. Mature IE, rIE and nE were counted and the result expressed as arithmetic mean percentage of bound erythrocytes±SD/20 fields of 100× Oil magnification as described elsewhere (Gysin, J., B. Pouvelle, N. Fievet, A. Scherf, and C. Lepolard. 1999. Ex vivo desequestration of Plasmodium falciparum-infected erythrocytes from human placenta by chondroitin sulfate A. Infect Immun. 67:6596-602).

[3] = test system: cytoadhesion of IE on endothelial cells or placenta cryosections; test: Stage-specific cytoadhesion inhibition on endothelial cells or placenta cryosections (discussion)
Description: Cytoadhesion inhibition and disruption assays were performed on SBEC 1D cells grown to confluence on 12-dot IFA slides as described elsewhere (Pouvelle, B., P. Meyer, C. Robert, L. Bardel and J. Gysin. 1997. Chondroitin-4-sulfate impairs in vitro and in vivo cytoadherence of Plasmodium falciparum infected erythrocytes. Mol Med. 3:508-18) by assessing the laboratory CSA-binding strains FCR3, FCBR, BXII, SUK, HB, IBR and the placenta isolates no. 24, 42,42DJ, 193 and 939. In short: 20 μl of a mixture of synchronized rIE with nE or mIE from corresponding cultures at a parasitaemia of 4-15% for a total 10^7 IE/ml RPMI 1640, pH6.8 were layered per dot of confluent SBEC 1D cells. For the inhibition assay, 20 μl of each mAb at a concentration of 0.2 to 200 μg/ml was deposited simultaneously with rIE or IE and corresponding nE/dot for 2 hours at +37° C. For the disruption assay the same mAbs were added after a one hour preincubation of IEs and nEs with endothelial cells for an additional 1 hour. Unbound erythrocytes were removed by vigorously washing the slides in RPMI 1640, pH6.8. Bound IE and nE were fixed with 0.25% glutaraldehyde in PBS pH7.2. The inhibition and disruption of cytoadhesion was expressed as bound IE and nE/mm^2 of confluent endothelial cells in the presence of mAbs, in comparison to unrelated mouse IgG of the same IgG isotype (Sigma, USA). […]

With “Thrombospondin: mature-stage IE adhesion receptor protein tested at 2.5 μg/ml” the “inhibitory activity on ring-stage IE cytoadhesion to SBEC 1D (in words)” value (“inhibitory activity” for short) [1] was “no effect”.

For chondroitin-sulphate A [CSA], the “desequestration of adherent mature IE^CSA by flushing” value [2] was “removed only the mature forms”, the “inhibition of cytoadhesion of mature blood stages” value ([3]; mature blood stages) was > 90% and the “inhibition of cytoadhesion of young trophozoites” value ([3]; young trophozoites (16-20 hours), RSP-2 and PfEMP1 both expressed) was ≤ 25%. For the same molecule, the “sensitivity of ring-stage IE^CSA cytoadhesion to inhibitor” value [1] was “insensitive” and the “time after invasion of maximal inhibition of IE^CSA binding” value [1] was 24 h.

For chondroitinase ABC, the “sensitivity of ring-stage IE^CSA cytoadhesion to inhibitor” value [1] was “insensitive”, the “time after invasion of maximal inhibition of IE^CSA binding” value [1] was 24 h and the “inhibitory activity” value [1] was “no significant inhibitory activity”.

dermatan-sulphate was tested, and the “inhibitory activity” value [1] was “not specific”.

For heparin, the “inhibition of ring-stage cytoadhesion” value ([1]; Heparin 100 μg/ml, heparinase treatment of target cells, SBEC 1D) was “about 50%”.

hyaluronate lyase was tested, and the “inhibitory activity” value [1] was “low level of inhibitory activity”.

hyaluronic acid was tested, and the “inhibitory activity” value [1] was “no activity”.

B1: trypsin: protease used to treat ring-stage IE (protein, UniProt P00760 24-246, looked up)
Serine protease 1: IVGGYTCGANTVPYQVSLNSGYHFCGGSLINSQWVVSAAHCYKSGIQVRLGEDNINVVEGNEQFISASKSIVHPSYNSNTLNNDIMLIKLKSAASLNSRVASISLPTSCASAGTQCLISGWGNTKSSGTSYPDVLKCLKAPILSDSSCKSAYPGQITSNMFCAGYLEGGKDSCQGDSGGPVVCSGKLQGIVSWGSGCAQKNKPGVYTKVCNYVSWIKQTIASN
modifications: TPCK-treated
notes: protease used to treat ring-stage IE
In the case of B1, the “inhibition of ring-stage IE adhesion after protease treatment of IE” value ([1]; protease concentration 100 μg/ml) is reported as “substantially inhibited”.
